The values that follow come from patent publication US10745382B2 (BRISTOL-MYERS SQUIBB COMPANY, priority 2015, dated 2020).

Molecules are shown by their SMILES.

The target of this assay is T1, PD-1/PD-L1 (Homo sapiens, UniProt Q9NZQ7).
T1 construct: made in house; host or cells: HEK293T
T1 sequence (Q9NZQ7 with tags, fused parts or gaps): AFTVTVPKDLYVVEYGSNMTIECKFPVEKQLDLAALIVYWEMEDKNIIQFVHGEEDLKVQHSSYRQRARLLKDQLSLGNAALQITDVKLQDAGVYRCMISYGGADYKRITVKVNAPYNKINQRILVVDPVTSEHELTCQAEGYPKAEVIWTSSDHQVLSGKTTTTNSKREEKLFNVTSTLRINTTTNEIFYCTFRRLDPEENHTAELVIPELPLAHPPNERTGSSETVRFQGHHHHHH
Briefly: PD-1/PD-L1 Homogenous Time-Resolved Fluorescence (HTRF) binding assay. The following applies: PD-L1-His 10 nM, PD-1-Ig 20 nM; value given as range class; read-out: Range or IC50. On the procedure: The ability of the compounds of formula (I) to bind to PD-L1 was investigated using a PD-1/PD-L1 Homogenous Time-Resolved Fluorescence (HTRF) binding assay.
Homogenous Time-Resolved Fluorescence (HTRF) Binding Assay.
All binding studies were performed in an HTRF assay buffer consisting of dPBS supplemented with 0.1% […] bovine serum albumin and 0.05% (v/v) Tween-20. […] HTRF detection was achieved using europium crypate-labeled anti-Ig (1 nM final) and allophycocyanin (APC) labeled anti-His (20 nM final). Antibodies were diluted in HTRF detection buffer and 5 μl was dispensed on top of the binding reaction. […] Additional binding assays were established between the human proteins PD-1-Ig/PD-L2-His (20 & 5 nM, respectively) and CD80-His/PD-L1-Ig (100 & 10 nM, respectively). […]
On to `Cc1c(COc2cc(OCc3cncc(C#N)c3)c(CN[C@@](C)(CO)C(=O)O)cc2Cl)cccc1-c1cccc(OCCC(=O)N2CC[C@@H](O)C2)c1` [Example 1010, (S)-2-((5-chloro-2-((5-cyanopyridin-3-yl)methoxy)-4-((3′-(3-((R)-3-hydroxypyrrolidin-1-yl)-3-oxopropoxy)-2-methyl-[1,1′-biphenyl]-3-yl)methoxy)benzyl)amino)-3-hydroxy-2-methylpropanoic Acid], for which the IC50 was 0.00021 to 0.01 µM.

On to `Cc1c(COc2cc(OCc3cncc(C#N)c3)c(CN3CCCC[C@H]3C(=O)O)cc2Cl)cccc1-c1cccc(OCCC(=O)N2CC[C@@H](O)C2)c1` [Example 1011, (S)-1-(5-chloro-2-((5-cyanopyridin-3-yl)methoxy)-4-((3′-(3-((R)-3-hydroxypyrrolidin-1-yl)-3-oxopropoxy)-2-methyl-[1,1′-biphenyl]-3-yl)methoxy)benzyl)piperidine-2-carboxylic Acid], for which the IC50 lay within 0.1 to 2 µM. `Cc1c(COc2cc(OCc3cncc(C#N)c3)c(CN3CC[C@H]3C(=O)O)cc2Cl)cccc1-c1cccc(OCCC(=O)N2CC[C@@H](O)C2)c1` [Example 1012, (S)-1-(5-chloro-2-((5-cyanopyridin-3-yl)methoxy)-4-((3′-(3-((R)-3-hydroxypyrrolidin-1-yl)-3-oxopropoxy)-2-methyl-[1,1′-biphenyl]-3-yl)methoxy)benzyl)azetidine-2-carboxylic Acid]: the half-inhibitory concentration (IC50) lay in the range of 0.00021 to 0.01 µM.

`Cc1c(COc2cc(OCc3cncc(C#N)c3)c(CN3CCCC[C@H]3C(=O)O)cc2Cl)cccc1-c1cccc(OCCCN2CC[C@@H](O)C2)c1` [Example 1013, (S)-1-(5-chloro-2-((5-cyanopyridin-3-yl)methoxy)-4-((3′-(3-((R)-3-hydroxypyrrolidin-1-yl)propoxy)-2-methyl-[1,1′-biphenyl]-3-yl)methoxy)benzyl)piperidine-2-carboxylic Acid]: the concentration for half-maximal inhibition (IC50) lay within 0.00021 to 0.01 µM. As for `Cc1c(COc2cc(OCc3cncc(C#N)c3)c(CNC[C@@H](O)CC(=O)O)cc2Cl)cccc1-c1cccc(OCCCN2CC[C@@H](O)C2)c1` [Example 1014, (S)-4-((5-chloro-2-((5-cyanopyridin-3-yl)methoxy)-4-((3′-(3-((R)-3-hydroxypyrrolidin-1-yl)propoxy)-2-methyl-[1,1′-biphenyl]-3-yl)methoxy)benzyl)amino)-3-hydroxybutanoic Acid], the figure is 0.00021 to 0.01 µM; as for `CC(=O)NCCNCc1cc(Cl)c(OCc2cccc(-c3cccc(OCCCN4CC[C@@H](O)C4)c3)c2C)cc1OCc1cncc(C#N)c1` [Example 1015, (R)—N-(2-((5-chloro-2-((5-cyanopyridin-3-yl)methoxy)-4-((3′-(3-(3-hydroxypyrrolidin-1-yl)propoxy)-2-methyl-[1,1′-biphenyl]-3-yl)methoxy)benzyl)amino)ethyl)acetamide], 0.00021 to 0.01 µM; as for `Cc1c(COc2cc(OCc3cncc(C#N)c3)c(CN[C@H](CO)C(=O)O)cc2Cl)cccc1-c1cccc(OCCCN2CC[C@@H](O)C2)c1` [Example 1016, (R)-2-((5-chloro-2-((5-cyanopyridin-3-yl)methoxy)-4-((3′-(3-((R)-3-hydroxypyrrolidin-1-yl)propoxy)-2-methyl-[1,1′-biphenyl]-3-yl)methoxy)benzyl)amino)-3-hydroxypropanoic Acid], 0.00021 to 0.01 µM. As to `Cc1c(COc2cc(OCc3cncc(C#N)c3)c(CN[C@@](C)(CO)C(=O)O)cc2Cl)cccc1-c1cccc(OCCCN2CC[C@@H](O)C2)c1` [Example 1017, (S)-2-((5-chloro-2-((5-cyanopyridin-3-yl)methoxy)-4-((3′-(3-((R)-3-hydroxypyrrolidin-1-yl)propoxy)-2-methyl-[1,1′-biphenyl]-3-yl)methoxy)benzyl)amino)-3-hydroxy-2-methylpropanoic Acid], the IC50 is 0.00021 to 0.01 µM.

As for `Cc1c(COc2cc(OCc3cncc(C#N)c3)c(CN3CCCC[C@H]3C(=O)O)cc2Cl)cccc1-c1cccc(OCCCN2CCC[C@@H](O)C2)c1` [Example 1018, (S)-1-(5-chloro-2-((5-cyanopyridin-3-yl)methoxy)-4-((3′-(3-((R)-3-hydroxypiperidin-1-yl)propoxy)-2-methyl-[1,1′-biphenyl]-3-yl)methoxy)benzyl)piperidine-2-carboxylic Acid], the IC50 fell in the range of 0.00021 to 0.01 µM. Turning to `Cc1c(COc2cc(OCc3cncc(C#N)c3)c(CN3CCCC[C@H]3C(=O)O)cc2Cl)cccc1-c1cccc(OCCCN2CCC[C@H](O)C2)c1` [Example 1019, (S)-1-(5-chloro-2-((5-cyanopyridin-3-yl)methoxy)-4-((3′-(3-((S)-3-hydroxypiperidin-1-yl)propoxy)-2-methyl-[1,1′-biphenyl]-3-yl)methoxy)benzyl)piperidine-2-carboxylic Acid], the IC50 is 0.00021 to 0.01 µM. For the compound `C=CC(=O)NCCCOc1cccc(-c2cccc(COc3cc(OCc4cncc(C#N)c4)c(CN4CCCC[C@H]4C(=O)O)cc3Cl)c2C)c1` [Example 1020, (S)-1-(4-((3′-(3-acrylamidopropoxy)-2-methyl-[1,1′-biphenyl]-3-yl)methoxy)-5-chloro-2-((5-cyanopyridin-3-yl)methoxy)benzyl)piperidine-2-carboxylic Acid], the IC50 fell in the range of 0.01 to 0.1 µM. For `C=CC(=O)NCCCOc1cccc(-c2cccc(COc3cc(OCc4cncc(C#N)c4)c(CN[C@H](CO)C(=O)O)cc3Cl)c2C)c1` [Example 1021, (R)-2-((4-((3′-(3-acrylamidopropoxy)-2-methyl-[1,1′-biphenyl]-3-yl)methoxy)-5-chloro-2-((5-cyanopyridin-3-yl)methoxy)benzyl)amino)-3-hydroxypropanoic Acid], the IC50 is 0.00021 to 0.01 µM.

As to `Cc1c(COc2cc(OCc3cncc(S(C)(=O)=O)c3)c(CN3CCCC[C@H]3C(=O)O)cc2Cl)cccc1-c1cccc(OCCCN2CC[C@@H](O)C2)c1` [Example 1022, (S)-1-(5-chloro-4-((3′-(3-((R)-3-hydroxypyrrolidin-1-yl)propoxy)-2-methyl-[1,1′-biphenyl]-3-yl)methoxy)-2-((5-(methylsulfonyl)pyridin-3-yl)methoxy)benzyl)piperidine-2-carboxylic Acid], the IC50 was 0.00021 to 0.01 µM. Turning to `Cc1c(COc2cc(OCc3cncc(S(C)(=O)=O)c3)c(CN[C@H](CO)C(=O)O)cc2Cl)cccc1-c1cccc(OCCCN2CC[C@@H](O)C2)c1` [Example 1023, (R)-2-((5-chloro-4-((3′-(3-((R)-3-hydroxypyrrolidin-1-yl)propoxy)-2-methyl-[1,1′-biphenyl]-3-yl)methoxy)-2-((5-(methylsulfonyl)pyridin-3-yl)methoxy)benzyl)amino)-3-hydroxypropanoic Acid], the IC50 is 0.00021 to 0.01 µM. For the compound `Cc1c(COc2cc(OCc3cncc(S(C)(=O)=O)c3)c(CN[C@@](C)(CO)C(=O)O)cc2Cl)cccc1-c1cccc(OCCCN2CC[C@@H](O)C2)c1` [Example 1024, (S)-2-((5-chloro-4-((3′-(3-((R)-3-hydroxypyrrolidin-1-yl)propoxy)-2-methyl-[1,1′-biphenyl]-3-yl)methoxy)-2-((5-(methylsulfonyl)pyridin-3-yl)methoxy)benzyl)amino)-3-hydroxy-2-methylpropanoic Acid], the 50% inhibitory concentration (IC50) lay in the range of 0.00021 to 0.01 µM.

For `Cc1c(COc2cc(OCc3cncc(S(C)(=O)=O)c3)c(CN[C@H](CO)C(=O)O)cc2Cl)cccc1-c1cccc(OCCCN2CC[C@@H](O)C2)c1C` [Example 1025, (R)-2-((5-chloro-4-((3′-(3-((R)-3-hydroxypyrrolidin-1-yl)propoxy)-2,2′-dimethyl-[1,1′-biphenyl]-3-yl)methoxy)-2-((5-(methylsulfonyl)pyridin-3-yl)methoxy)benzyl)amino)-3-hydroxypropanoic Acid], the IC50 fell in the range of 0.00021 to 0.01 µM. Turning to `Cc1c(COc2cc(OCc3cncc(S(C)(=O)=O)c3)c(CN[C@](C)(CO)C(=O)O)cc2Cl)cccc1-c1cccc(OCCCN2CC[C@@H](O)C2)c1C` [Example 1026, (R)-2-((5-chloro-4-((3′-(3-((R)-3-hydroxypyrrolidin-1-yl)propoxy)-2,2′-dimethyl-[1,1′-biphenyl]-3-yl)methoxy)-2-((5-(methylsulfonyl)pyridin-3-yl)methoxy)benzyl)amino)-3-hydroxy-2-methylpropanoic Acid], the IC50 lay in the range of 0.00021 to 0.01 µM.

Consider `Cc1c(COc2cc(OCc3cncc(S(C)(=O)=O)c3)c(CN3CCCC[C@H]3C(=O)O)cc2Cl)cccc1-c1cccc(OCCCN2CC[C@@H](O)C2)c1C` [Example 1027, (S)-1-(5-chloro-4-((3′-(3-((R)-3-hydroxypyrrolidin-1-yl)propoxy)-2,2′-dimethyl-[1,1′-biphenyl]-3-yl)methoxy)-2-((5-(methylsulfonyl)pyridin-3-yl)methoxy)benzyl)piperidine-2-carboxylic Acid], for which the IC50 was 0.00021 to 0.01 µM. With `COC(=O)C1(O)CCN(CCCOc2cccc(-c3cccc(COc4cc(OCc5cncc(C#N)c5)c(CN[C@H](CO)C(=O)O)cc4Cl)c3C)c2)CC1` [Example 1028, (R)-2-((5-chloro-2-((5-cyanopyridin-3-yl)methoxy)-4-((3′-(3-(4-hydroxy-4-(methoxycarbonyl)piperidin-1-yl)propoxy)-2-methyl-[1,1′-biphenyl]-3-yl)methoxy)benzyl)amino)-3-hydroxypropanoic Acid], the IC50 was 0.00021 to 0.01 µM. As for `COC(=O)C1(O)CCN(CCCOc2cccc(-c3cccc(COc4cc(OCc5cncc(C#N)c5)c(CN[C@H](CO)C(=O)O)cc4Cl)c3C)c2C)CC1` [Example 1029, (R)-2-((5-chloro-2-((5-cyanopyridin-3-yl)methoxy)-4-((3′-(3-(4-hydroxy-4-(methoxycarbonyl)piperidin-1-yl)propoxy)-2,2′-dimethyl-[1,1′-biphenyl]-3-yl)methoxy)benzyl)amino)-3-hydroxypropanoic Acid], the figure is 0.00021 to 0.01 µM.
